The numbers were not newly measured in patent US20070281020A1, “PHARMACEUTICAL COMPOSITIONS FOR SUSTAINED RELEASE OF PHENYLEPHRINE” (priority 2006, published 2007), which cites them from elsewhere.

SMILES strings stand for the structures.

For this data set the following is noted: active metabolite of loratadine.

Take `Clc1ccc2c(c1)CCc1cccnc1C2=C1CCNCC1` [desloratadine]: the “half-life (t1/2)” value is 15 to 19 h.
